What was measured:
MDA-MB 231 cells = experiment: Cytotoxic effects, concentration dependent test (IC50), crystal violet staining; assay type: cell-based; conditions: Homo sapiens; estrogen receptor negative MDA-MB 231 cells; incubation of 48 h
Description: (§1) The cytotoxic assay in estrogen receptor positive MCF-7 cells has been described previously by Ruenitz, P.C. et al. (1997) J. Steroid Biochem. Mol. Biol. 63, 203-209). Fiation, staining and quantitation of the cells were carried out according to Gillies (Gillies, R.J. et al. (1986) Anal. Biochem. 159, 109-113) and Kueng (Kueng, W. et al. (1989) Anal. Biochem. 182, 16-19). Moreover the test was carried out with estrogen receptor negative MD-MB 231 cells. MCF-7 cells (MDA-MB 231 cells) from an almost confluent monolayer were harvest by trypsinization and suspended to approximately 7 x 10^3 cells/mL (1 x 10^3 cells/mL). At the beginning of the experiment, the cell suspension was transferred to 96-well microplates (100 µL/well). After cultivating them for 3 days at growing conditions the medium was removed and replaced by one containing the test compounds. Control wells (16/plate) were contained 0.1% of DMSO, which was used for the preparation of the stock solutions. The initial cell density was determined by addition of glutaric dialdehyde (1 % in PBS; 100 µL/well). After incubation for 3-7 days, the medium was removed, and glutaric dialdehyde (1 % in PBS; 100 µL/well) was added for fixation. After 15 min, the solution of the aldehyde was decanted and 180 µL PBS/well added. The plates were stored at 4°C until staining. Cells were stained by treating them for 25 min with 100 µL of an aqueous solution of crystal violet (0.02%). After decanting cells were washed several times with water to remove the adherent dye. After addition of 180 µL of ethanol (70%), plates were gently shaken for 4 h. Optical density of each well was measured in a microplate autoreader at 590 nm.
(§2) MCF-7 cells (MDA-MB 231 cells) from an almost confluent monolayer were harvested by trypsinization and suspended to approximately 10 × 10^3 cells/mL (5 x 10^3 cells/mL). After cultivating them for 3 days at growing conditions the medium was removed and replaced by one containing the test compounds (control wells 8/plate). After incubation of 72 h (48 h) the medium was removed and the test was continued as descried above.

MCF-7 cells = experiment: as above; assay type: cell-based; conditions: Homo sapiens, MCF7; estrogen receptor positive MCF-7 cells; incubation of 72 h
Description: as §1, §2

estrogen receptor = target: T1, estrogen receptor (Homo sapiens, UniProt P03372); experiment: Whole Cell Assay (WCA): competitive estrogen receptor binding against [3H]17β-estradiol; conditions: test compound 10^-6 M, 1 h incubation (37°C), percentage to a solvent treated control sample
T1 construct: endogenous in cells; host or cells: MCF-7
T1 sequence (P03372 1-595): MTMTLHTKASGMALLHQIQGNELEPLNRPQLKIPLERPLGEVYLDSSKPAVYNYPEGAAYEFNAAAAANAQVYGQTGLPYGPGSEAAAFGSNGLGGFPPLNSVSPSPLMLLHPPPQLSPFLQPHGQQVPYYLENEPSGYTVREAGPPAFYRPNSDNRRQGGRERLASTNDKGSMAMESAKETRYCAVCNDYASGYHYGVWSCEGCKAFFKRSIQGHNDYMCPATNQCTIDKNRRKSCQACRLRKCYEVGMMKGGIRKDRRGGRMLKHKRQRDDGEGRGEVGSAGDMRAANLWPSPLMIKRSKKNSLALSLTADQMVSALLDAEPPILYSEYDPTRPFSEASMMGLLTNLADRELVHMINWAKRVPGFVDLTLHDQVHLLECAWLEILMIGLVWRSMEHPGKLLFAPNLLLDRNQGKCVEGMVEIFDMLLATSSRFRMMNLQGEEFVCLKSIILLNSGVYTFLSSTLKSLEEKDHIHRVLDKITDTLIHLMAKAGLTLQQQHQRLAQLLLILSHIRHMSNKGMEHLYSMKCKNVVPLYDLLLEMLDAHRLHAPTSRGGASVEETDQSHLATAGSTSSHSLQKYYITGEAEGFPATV
Description: (§3) ER binding affinity is measured in competitive binding assays compared to estradiol. Binding affinity is expressed as a relative binding affinity (RBA) in percent compared to estradiol which is assigned an affinity of 100%. Substantial affinity for ER is indicated by an RBA of about 0,1% or more. Good affinity binding to ER is indicated by an RBA of about 1%- to about 10%. High affinity binding to ER is indicated by an RBA of about 10% or higher.
MCF-7 cells were plated in 24-well dishes (4 x 10^4 cells/well) and cultured for 48 h. After the incubation the medium was replaced by test compounds diluted in serum free medium containing [^3H]17β-Estradiol ([^3H]E2). Additional wells of each test compound concentration were filled with 500-fold excess of unlabeled E2 for nonspecific binding measurements. After 1 h incubation (37°C) the medium was removed and monolayer washed three times with an ice-cold saline solution. Bond E2 was then extracted from the monolayer with 1 mL ethanol at room temperature (20 min of incubation) and aliquots of 200 µL of ethanolic extracts were transferred to scintillation vials containing 3.8 mL scintillator Ecoscint H (National Diagnostic, Atlanta) for radioactivity counting. All measurements were performed in duplicate. Specific [^3H]E2 incorporation into the cells was calculated from the difference in incorporated radioactivity after incubation in the absence or presence of an excess of unlabeled E2. The results (relative radioactivity) were expressed as a percentage to a solvent treated control sample.

[1] = target: T2, recombinant human estrogen receptor (hERα) (Homo sapiens, UniProt P03372); experiment: Recombinant ERα (HAP Assay): competitive binding against [3H]E2 on hydroxylapatite; conditions: hERα adsorbed on hydroxylapatite; test compound 10^-6 M; overnight at 4°C; percentage to a solvent treated control sample
T2 construct: purchased Calbiochem
T2 sequence (P03372 1-595): T1 sequence (P03372 1-595)
Description: as §3
An ethanolic solution (250 fmol/µL) of recombinant human estrogen receptor (hERα) (Calbiochem) was diluted with Tris-HCl buffer pH 8.0 (1:100). This hERα preparations adsorbed on hydroxylapatite pellets (prepared in 10 mmol/L Tris HCl buffer pH 8.0) which were labeled with increasing concentrations of the test compound (10^-10 - 10^-5 M) and [^3H]E2 (0.1 %) in presence or absence of 200-fold excess of unlabeled E2 and were incubated overnight at 4°C. Bond [^3H]E2 were then successively extracted with ethanol and aliquots of 200 µL of ethanolic extracts were transferred to scintillation vials containing 3.8 mL scintillator Ecoscint H (National Diagnostic, Atlanta) for radioactivity counting. The data interpretation was carried out as shown above.

| Structure (SMILES) | IC50 (MDA-MB 231 cells) | IC50 (MCF-7 cells) | Relative radioactivity of labeled [^3H]E2; RBA-value MCF-7 cells (WCA); 10^-6 M (estrogen receptor) | Relative radioactivity of labeled [^3H]E2; RBA-value HAP-Assay; 10^-6 M [1] |
| --- | --- | --- | --- | --- |
| Oc1ccc(-c2cc(-c3ccc(O)cc3)c(-c3ccc(Cl)cc3O)[nH]2)cc1 [Example 10, 2-(4-Chloro-2-hydroxyphenyl)-3,5-bis(4-hydroxyphenyl)-1H-pyrrole] | 18.8 µM | 9.2 µM |  |  |
| CCCc1c(-c2ccc(Cl)cc2O)[nH]c(-c2ccc(O)cc2)c1-c1ccc(O)cc1 [Example 12, 2-(4-Chloro-2-hydroxyphenyl)-4,5-bis(4-hydroxyphenyl)-3-propyl-1H-pyrrole] | 6.5 µM | 8.1 µM | 78.1 ± 4.4% | 70.3 ± 6.1% |
| Oc1ccc(-c2cc(-c3ccc(O)cc3Cl)[nH]c2-c2ccc(O)cc2Cl)cc1 [Example 9, 2,5-Bis(2-chloro-4-hydroxyphenyl)-3-(4-hydroxyphenyl)-1H-pyrrole] | 13.4 µM | 7.6 µM | 13.1 ± 3.2% | 19.1 ± 1.5% |
| CCCc1c(-c2ccc(OC)cc2F)cc(-c2ccc(OC)cc2)n1-c1ccc(OC)cc1 [Example 17, 4-(2-Fluoro-4-methoxyphenyl)-1,2-bis(4-methoxyphenyl)-5-propyl-1H-pyrrole] | 18.4 µM | 17.8 µM |  |  |
| Oc1ccc(-c2cc(-c3ccc(O)cc3Cl)[nH]c2-c2ccc(Cl)cc2O)cc1 [Example 11, 5-(2-Chloro-4-hydroxyphenyl)-2-(4-chloro-2-hydroxyphenyl)-3-(4-hydroxyphenyl)-1H-pyrrole] | 14 µM | 10.5 µM |  |  |
| Oc1ccc(-c2cc(-c3ccc(O)cc3)c(-c3ccc(O)cc3Cl)[nH]2)cc1 [Example 7, 2-(2-Chloro-4-hydroxyphenyl)-3,5-bis(4-hydroxyphenyl)-1H-pyrrole] | 13.5 µM | 16.4 µM | 35.3 ± 4.9% | 26.4 ± 8.3% |
| CCc1c(-c2ccc(O)cc2Cl)cc(-c2ccc(O)cc2)n1-c1ccc(O)cc1 [Example 19, 4-(2-Chloro-4-hydroxyphenyl)-5-ethyl-1,2-bis(4-hydroxyphenyl)-1H-pyrrole] | 18.4 µM | 17.8 µM | 41.2 ± 8.3% | 30.1 ± 5.1% |
| CCCc1c(-c2ccc(O)cc2Cl)cc(-c2ccc(O)cc2)n1-c1ccc(O)cc1 [Example 20, 4-(2-Chloro-4-hydroxyphenyl)-1,2-bis(4-hydroxyphenyl)-5-propyl-1H-pyrrole] | 16.2 µM | 19.5 µM |  |  |
| COc1ccc(-c2cc(-c3ccc(OC)cc3Cl)c(C)n2-c2ccc(OC)cc2)cc1 [Example 13, 4-(2-Chloro-4-methoxyphenyl)-1,2-bis(4-methoxyphenyl)-5-methyl-1H-pyrrole] | 20.3 µM | 23.6 µM |  |  |
| COc1ccc(-c2cc(-c3ccc(OC)cc3Cl)[nH]c2-c2ccc(OC)cc2)cc1 [Example 2, 5-(2-Chloro-4-methoxyphenyl)-2,3-bis(4-methoxyphenyl)-1H-pyrrole] | 10.3 µM | 9.5 µM |  |  |
| CC(C)Cc1c(-c2ccc(O)cc2Cl)cc(-c2ccc(O)cc2)n1-c1ccc(O)cc1 [Example 21, 4-(2-Chloro-4-hydroxyphenyl)-5-isobutyl-1,2-bis(4-hydroxyphenyl)-1H-pyrrole] | 16.1 µM | 15.2 µM |  |  |
| COc1ccc(-c2cc(-c3ccc(OC)cc3Cl)c(CC(C)C)n2-c2ccc(OC)cc2)cc1 [Example 16, 4-(2-Chloro-4-methoxyphenyl)-5-isobutyl-1,2-bis(4-methoxyphenyl)-1H-pyrrole] | 15.2 µM | 18 µM |  |  |
| Cc1c(-c2ccc(O)cc2Cl)cc(-c2ccc(O)cc2)n1-c1ccc(O)cc1 [Example 18, 4-(2-Chloro-4-hydroxyphenyl)-1,2-bis(4-hydroxyphenyl)-5-methyl-1H-pyrrole] | 17.4 µM | 23.4 µM |  |  |
| COc1ccc(-c2cc(-c3ccc(OC)cc3)c(-c3ccc(OC)cc3Cl)[nH]2)cc1 [Example 1, 2-(2-Chloro-4-methoxyphenyl)-3,5-bis(4-methoxyphenyl)-1H-pyrrole] | 27.4 µM | 17.7 µM |  |  |

Source: EP1889617A1, “Triphenyl modified 5-membered heterocycles and their use as anticancer and antiflammatory agents” (Freie Universität Berlin, priority 2006, dated 2008)
